# According to ChEMBL document CHEMBL4177573 (Bioorg Med Chem, 2017):
# Square brackets hold non-standard residues; d marks the D form. Peptide text beside a SMILES is read from it. 4Pal = N[C@@H](Cc1ccncc1)C(=O)O; Cha = N[C@@H](CC1CCCCC1)C(=O)O; Aib = CC(C)(N)C(=O)O
# What was measured:
# [1] = molecular target: T1, Neuropeptide Y receptor type 2 (Homo sapiens, UniProt P49146); experiment: Displacement of [125I]-PYY from human neuropeptide Y2 receptor expressed in CHO cell membranes incubated for 60 mins by TopCount based method
# T1 sequence (P49146 whole entry): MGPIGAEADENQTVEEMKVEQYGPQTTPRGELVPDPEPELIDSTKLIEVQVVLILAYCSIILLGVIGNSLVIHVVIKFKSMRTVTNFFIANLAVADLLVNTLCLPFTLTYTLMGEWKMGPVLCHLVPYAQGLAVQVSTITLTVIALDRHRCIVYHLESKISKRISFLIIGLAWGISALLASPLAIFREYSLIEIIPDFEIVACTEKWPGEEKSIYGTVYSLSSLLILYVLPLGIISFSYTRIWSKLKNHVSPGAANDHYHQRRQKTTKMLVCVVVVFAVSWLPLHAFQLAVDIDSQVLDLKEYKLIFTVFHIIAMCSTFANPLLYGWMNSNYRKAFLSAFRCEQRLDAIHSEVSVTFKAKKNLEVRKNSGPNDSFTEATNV
# [2] = molecular target: T1, Neuropeptide Y receptor type 2; experiment: Agonist activity at human neuropeptide Y2 receptor expressed in CHO cell membranes assessed as stimulation of [35S]GTPgammaS binding incubated for 120 mins by liquid scintillation counting method; type: functional
# [3] = tested on: Mus musculus; experiment: Anorectic activity in C57BL/6J mouse assessed as inhibition of food intake at 0.1 mg/kg/day, sc for 3 days dosed as continuous administration by infusion using osmotic pump; type: functional; details: 72 h
# [4] = tested on: Mus musculus; experiment: Anorectic activity in C57BL/6J mouse assessed as inhibition of food intake at 0.03 mg/kg/day, sc for 3 days dosed as continuous administration by infusion using osmotic pump; type: functional; details: 72 h
# [5] = tested on: Mus musculus; experiment: Anorectic activity in C57BL/6J mouse assessed as inhibition of food intake at 0.3 mg/kg/day, sc dosed as […] and measured after 12 hrs; type: functional
# [6] = tested on: Mus musculus; experiment: Anorectic activity in C57BL/6J mouse assessed as inhibition of food intake at 0.3 mg/kg/day, sc dosed as […] and measured after 24 hrs; type: functional
Compound,IC50 [1],EC50 [2],inhibition in vivo at 0.1 mg/kg/day [3],inhibition in vivo at 0.03 mg/kg/day [4],inhibition in vivo at 0.3 mg/kg/day [5],inhibition in vivo at 0.3 mg/kg/day [6]
CC[C@@](C)(NC(=O)[C@H](CC1CCCCC1)NC(=O)[C@H](Cc1cnc[nH]1)NC(=O)[C@H](CCCNC(=N)N)NC(=O)[C@H]1CCCN1C(=O)[C@H](CO)NC(C)=O)C(=O)N[C@@H](CC(N)=O)C(=O)N[C@@H](CC(C)C)C(=O)NC(C)(C)C(=O)N[C@H](C(=O)N[C@@H](CCCNC(=N)N)C(=O)N[C@@H](CCC(N)=O)C(=O)N[C@@H](CCCNC(=N)N)C(=O)N[C@@H](CC1CCCCC1)C(N)=O)[C@@H](C)O,3.3 nM,0.5 nM,–,–,–,–
CC(=O)N[C@@H](CO)C(=O)N1CCC[C@@H]1C(=O)NC(C)(C)C(=O)N[C@@H](Cc1ccncc1)C(=O)N[C@@H](CC1CCCCC1)C(=O)NC(C)(C)C(=O)N[C@@H](CC(N)=O)C(=O)N[C@@H](CCCCN)C(=O)NC(C)(C)C(=O)N[C@H](C(=O)N[C@@H](CCCNC(=N)N)C(=O)N[C@@H](CCC(N)=O)C(=O)N[C@@H](CCCNC(=N)N)C(=O)N[C@@H](CC1CCCCC1)C(N)=O)[C@@H](C)O,4.5 nM,0.21 nM,50%,–,–,–
CC[C@](C)(NC(=O)[C@H]1CCCN1C(=O)[C@H](CO)NC(C)=O)C(=O)N[C@@H](Cc1ccncc1)C(=O)N[C@@H](CC1CCCCC1)C(=O)N[C@@H](CC(C)(C)C)C(=O)N[C@@H](CC(N)=O)C(=O)N[C@@H](CCCCN)C(=O)NC(C)(C)C(=O)N[C@H](C(=O)N[C@@H](CCCNC(=N)N)C(=O)N[C@@H](CCC(N)=O)C(=O)N[C@@H](CCCNC(=N)N)C(=O)N[C@@H](CC1CCCCC1)C(N)=O)[C@@H](C)O,0.4 nM,0.2 nM,–,52%,12%,1%
CC(C)C[C@H](NC(=O)[C@H](CC(N)=O)NC(=O)[C@H](CC1CCCCC1)NC(=O)[C@H](CC1CCCCC1)NC(=O)[C@H](Cc1cnc[nH]1)NC(=O)[C@H](CCCNC(=N)N)NC(=O)[C@H]1CCCN1C(=O)[C@H](CO)NC(=O)c1c[nH]cn1)C(=O)NC(C)(C)C(=O)N[C@H](C(=O)N[C@@H](CCCNC(=N)N)C(=O)N[C@@H](CCC(N)=O)C(=O)N[C@@H](CCCNC(=N)N)C(=O)N[C@@H](CC1CCCCC1)C(N)=O)[C@@H](C)O,0.51 nM,0.18 nM,–,–,–,–
CC[C@](C)(NC(=O)[C@H](CC1CCCCC1)NC(=O)[C@H](Cc1ccncc1)NC(=O)[C@](C)(CC)NC(=O)[C@H]1CCCN1C(=O)[C@H](CO)NC(C)=O)C(=O)N[C@@H](CC(N)=O)C(=O)N[C@@H](CCCCN)C(=O)NC(C)(C)C(=O)N[C@H](C(=O)N[C@@H](CCCNC(=N)N)C(=O)N[C@@H](CCC(N)=O)C(=O)N[C@@H](CCCNC(=N)N)C(=O)N[C@@H](CC1CCCCC1)C(N)=O)[C@@H](C)O,0.57 nM,0.16 nM,–,36%,23%,16%
CC[C@](C)(NC(=O)[C@H](CO)NC(C)=O)C(=O)N[C@@H](CCCNC(=N)N)C(=O)N[C@@H](Cc1cnc[nH]1)C(=O)N[C@@H](CC1CCCCC1)C(=O)N[C@@H](CC1CCCCC1)C(=O)N[C@@H](CC(N)=O)C(=O)N[C@@H](CC(C)C)C(=O)NC(C)(C)C(=O)N[C@H](C(=O)N[C@@H](CCCNC(=N)N)C(=O)N[C@@H](CCC(N)=O)C(=O)N[C@@H](CCCNC(=N)N)C(=O)N[C@@H](CC1CCCCC1)C(N)=O)[C@@H](C)O,1.8 nM,0.35 nM,–,–,–,–
CC[C@@](C)(NC(=O)[C@H](CCCCN)NC(=O)[C@H](CC(N)=O)NC(=O)C(C)(C)NC(=O)[C@H](CC1CCCCC1)NC(=O)[C@H](Cc1ccncc1)NC(=O)[C@H](CCCNC(=N)N)NC(=O)[C@H]1CCCN1C(=O)[C@H](CO)NC(C)=O)C(=O)N[C@H](C(=O)N[C@@H](CCCNC(=N)N)C(=O)N[C@@H](CCC(N)=O)C(=O)N[C@@H](CCCNC(=N)N)C(=O)N[C@@H](CC1CCCCC1)C(N)=O)[C@@H](C)O,0.27 nM,0.11 nM,86%,34%,–,–
CC(=O)N[C@@H](CO)C(=O)NC(C)(C)C(=O)N[C@@H](CCCNC(=N)N)C(=O)N[C@@H](Cc1ccncc1)C(=O)N[C@@H](CC1CCCCC1)C(=O)NC(C)(C)C(=O)N[C@@H](CC(N)=O)C(=O)N[C@@H](CCCCN)C(=O)NC(C)(C)C(=O)N[C@H](C(=O)N[C@@H](CCCNC(=N)N)C(=O)N[C@@H](CCC(N)=O)C(=O)N[C@@H](CCCNC(=N)N)C(=O)N[C@@H](CC1CCCCC1)C(N)=O)[C@@H](C)O (Ac-S[Aib]R[4Pal][Cha][Aib]NK[Aib]TRQR[Cha]-NH2),0.41 nM,0.13 nM,95%,36%,–,–
CC[C@](C)(NC(=O)[C@H](CC(C)C)NC(=O)[C@H](CC(N)=O)NC(=O)[C@H](CC1CCCCC1)NC(=O)[C@H](CC1CCCCC1)NC(=O)[C@H](Cc1cnc[nH]1)NC(=O)[C@H](CCCNC(=N)N)NC(=O)[C@H]1CCCN1C(=O)[C@H](CO)NC(C)=O)C(=O)N[C@H](C(=O)N[C@@H](CCCNC(=N)N)C(=O)N[C@@H](CCC(N)=O)C(=O)N[C@@H](CCCNC(=N)N)C(=O)N[C@@H](CC1CCCCC1)C(N)=O)[C@@H](C)O,3.7 nM,0.41 nM,–,–,–,–
CC[C@](C)(NC(=O)[C@H]1C[C@H](O)CN1C(=O)[C@H](CO)NC(C)=O)C(=O)N[C@@H](Cc1ccncc1)C(=O)N[C@@H](CC1CCCCC1)C(=O)NC(C)(C)C(=O)N[C@@H](CC(N)=O)C(=O)N[C@@H](CCCCN)C(=O)NC(C)(C)C(=O)N[C@H](C(=O)N[C@@H](CCCNC(=N)N)C(=O)N[C@@H](CCC(N)=O)C(=O)N[C@@H](CCCNC(=N)N)C(=O)N[C@@H](CC1CCCCC1)C(N)=O)[C@@H](C)O,0.78 nM,0.21 nM,–,45%,–,–
CC[C@](C)(NC(=O)[C@H]1C[C@H](O)CN1C(=O)[C@H](CO)NC(=O)c1c[nH]cn1)C(=O)N[C@@H](Cc1ccncc1)C(=O)N[C@@H](CC1CCCCC1)C(=O)NC(C)(C)C(=O)N[C@@H](CC(N)=O)C(=O)N[C@@H](CCCCN)C(=O)NC(C)(C)C(=O)N[C@H](C(=O)N[C@@H](CCCNC(=N)N)C(=O)N[C@@H](CCC(N)=O)C(=O)N[C@@H](CCCNC(=N)N)C(=O)N[C@@H](CC1CCCCC1)C(N)=O)[C@@H](C)O,0.91 nM,0.17 nM,–,–,–,–
CC(C)C[C@H](NC(=O)[C@H](CC(N)=O)NC(=O)[C@H](CC1CCCCC1)NC(=O)[C@H](CC1CCCCC1)NC(=O)[C@H](Cc1cnc[nH]1)NC(=O)[C@H](CCCNC(=N)N)NC(=O)[C@H]1CCCN1C(=O)[C@H](CO)NC(=O)CO)C(=O)NC(C)(C)C(=O)N[C@H](C(=O)N[C@@H](CCCNC(=N)N)C(=O)N[C@@H](CCC(N)=O)C(=O)N[C@@H](CCCNC(=N)N)C(=O)N[C@@H](CC1CCCCC1)C(N)=O)[C@@H](C)O,1.2 nM,0.59 nM,–,–,–,–
CC[C@](C)(NC(=O)[C@H]1C[C@H](O)CN1C(=O)[C@H](CO)NC(C)=O)C(=O)N[C@@H](Cc1ccncc1)C(=O)N[C@@H](CC1CCCCC1)C(=O)N[C@@H](CC(C)(C)C)C(=O)N[C@@H](CC(N)=O)C(=O)N[C@@H](CCCCN)C(=O)NC(C)(C)C(=O)N[C@H](C(=O)N[C@@H](CCCNC(=N)N)C(=O)N[C@@H](CCC(N)=O)C(=O)N[C@@H](CCCNC(=N)N)C(=O)N[C@@H](CC1CCCCC1)C(N)=O)[C@@H](C)O,0.58 nM,0.13 nM,–,27%,4%,8%
CC[C@](C)(NC(=O)[C@H](CC1CCCCC1)NC(=O)[C@H](Cc1ccncc1)NC(=O)[C@](C)(CC)NC(=O)[C@H]1C[C@H](O)CN1C(=O)[C@H](CO)NC(=O)c1c[nH]cn1)C(=O)N[C@@H](CC(N)=O)C(=O)N[C@@H](CCCCN)C(=O)NC(C)(C)C(=O)N[C@H](C(=O)N[C@@H](CCCNC(=N)N)C(=O)N[C@@H](CCC(N)=O)C(=O)N[C@@H](CCCNC(=N)N)C(=O)N[C@@H](CC1CCCCC1)C(N)=O)[C@@H](C)O,0.44 nM,0.13 nM,–,49%,–,–
CC[C@@](C)(NC(=O)[C@H](CC(C)C)NC(=O)[C@H](CC(N)=O)NC(=O)[C@H](CC1CCCCC1)NC(=O)[C@H](CC1CCCCC1)NC(=O)[C@H](Cc1cnc[nH]1)NC(=O)[C@H](CCCNC(=N)N)NC(=O)[C@H]1CCCN1C(=O)[C@H](CO)NC(C)=O)C(=O)N[C@H](C(=O)N[C@@H](CCCNC(=N)N)C(=O)N[C@@H](CCC(N)=O)C(=O)N[C@@H](CCCNC(=N)N)C(=O)N[C@@H](CC1CCCCC1)C(N)=O)[C@@H](C)O,0.67 nM,0.17 nM,–,–,–,–
CC[C@@](C)(NC(=O)[C@H](CO)NC(C)=O)C(=O)N[C@@H](CCCNC(=N)N)C(=O)N[C@@H](Cc1cnc[nH]1)C(=O)N[C@@H](CC1CCCCC1)C(=O)N[C@@H](CC1CCCCC1)C(=O)N[C@@H](CC(N)=O)C(=O)N[C@@H](CC(C)C)C(=O)NC(C)(C)C(=O)N[C@H](C(=O)N[C@@H](CCCNC(=N)N)C(=O)N[C@@H](CCC(N)=O)C(=O)N[C@@H](CCCNC(=N)N)C(=O)N[C@@H](CC1CCCCC1)C(N)=O)[C@@H](C)O,2.4 nM,0.28 nM,–,–,–,–
CC[C@](C)(NC(=O)[C@H](CC1CCCCC1)NC(=O)[C@H](Cc1cnc[nH]1)NC(=O)[C@H](CCCNC(=N)N)NC(=O)[C@H]1CCCN1C(=O)[C@H](CO)NC(C)=O)C(=O)N[C@@H](CC(N)=O)C(=O)N[C@@H](CC(C)C)C(=O)NC(C)(C)C(=O)N[C@H](C(=O)N[C@@H](CCCNC(=N)N)C(=O)N[C@@H](CCC(N)=O)C(=O)N[C@@H](CCCNC(=N)N)C(=O)N[C@@H](CC1CCCCC1)C(N)=O)[C@@H](C)O,0.45 nM,0.18 nM,–,–,–,–
